Key:
[1] = test system: S6RP serine-240/244 phosphorylation; test: In vitro phospho-S6 cellular assay; assay type: cell-based; conditions: Homo sapiens; HEK293T/17 cells, 2 hours; read-out: pS6 inhibition value (IC50), activity level
From the text: Activation of mTOR signaling results in phosphorylation of several downstream targets. In cells, mTOR exists in two different protein complexes. The mTOR Complex-1 (mTORC1) phosphorylates and activates S6 Kinase 1 (S6K1) and S6 Kinase 2 (S6K2) (also known as p70S6K) which then phosphorylate S6 Ribosomal Protein (S6RP) (also known as RPS6)3. S6RP is phosphorylated on serine 235, serine 236, serine 240 and serine 244 by both pS6K1 and pS6K2. The mTOR Complex-2 (mTORC2) phosphorylates AKT on serine 473 which activates the AKT signaling pathway.
The assay measures a test compound's inhibition of S6RP serine-240/244 phosphorylation and inhibition of Akt serine-473 phosphorylation in human embryonic kidney derived HEK293T/17 cells (ATCC CRL-11268).
The HEK293T/17 cell line is maintained in DMEM media (Invitrogen catalogue number 41965-039) supplemented with 10% FCS at 37° C. in a 5% CO2 humidified incubator.
Cells are seeded in 96-well plates at 40,000 cells/well (pS6RP S240/244 assay) or 80,000 cells/well (pAkt S473 assay) in 90 μl growth media (DMEM, 2% FCS). Plates are incubated for 1 hour in a humidified incubator to allow the cells to adhere. Cells are treated with 8 concentrations of test compounds or DMSO alone for controls (final DMSO concentration 0.1%) and incubated at 37° C. for 2 hours. Then 20 μl of 5× concentrated lysis buffer (750 mM NaCl, 100 mM Tris pH7.4, 5 mM ADTA, 5 mM EGTA, 5% Triton X-100) is added, plates are sealed and incubated for 15 minutes at 4° C. with gentle shaking. After cell lysis, 25 μl cell lysate is transferred to a MesoScale plate coated with an antibody to pS6RP Ser240/244 (MesoScale Discovery K150DGD-3) or an antibody to pAkt Ser 473 (MesoScale Discovery K151DGD-3). Plates have been blocked before by incubation with 150 μl MesoScale Discovery Blocking Solution-A for 1 hour at room temperature followed by washing with 150 μl 1× Tris wash buffer per well. After the transfer of the cell lysate to the MSD plate, the pS6RP (or pAkt) protein is captured on the coated antibody by incubation at room temperature for 1 hour with gentle shaking. After the capture step the plate is washed three times with 150 μl of 1× Tris wash buffer per well. Then 25 μl detection antibody conjugated with a Sulfo-Tag is added and incubated for 1 hour at room temperature with gentle shaking. Subsequently the antibody solution is removed and the plate is washed 3 times with 150 μl 1× Tris wash buffer per well and 150 μl Read buffer is added. The plates are analysed on a MSD 2400 Plate Reader (MesoScale Discovery). Data analysis is performed using nonlinear regression for a sigmoidal dose-response with a variable slope.

[2] = test system: IFNγ release in whole blood; test: In vitro human whole blood assay (IFNγ release); assay type: cell-based; conditions: αCD3/αCD28 and IL-2 stimulation, 18 hours, read-out: WB inhibition value (pIC50) (converted)
Protocol: This assay measures IFNγ release in whole blood after αCD3/αCD28 and IL-2 treatment. The whole blood contains circulating T lymphocytes; αCD3/αCD28 stimulation mimics antigen receptor signalling, resulting in epigenetic changes to the IFNG gene locus, such that when IL-2 is added, IFNγ is produced.
Human whole blood, with Na-heparin as the anticoagulant, is obtained from Clinical Trials Laboratory Services. Blood is diluted 1.4 times with RPMI 1640 (Lonza, BE12-167F) and 175 μl/well is distributed in a low evaporation 96-well plates (Falcon, BD Labware, 353072). Blood is treated with 10 concentrations of test compounds or DMSO alone for controls (final DMSO concentration 0.2%) and incubated at 37° C. for 1 hour. Blood is then stimulated with 1 μg/ml αCD3 (R&D Systems, MAB100), 1 μg/ml αCD28 (BD Pharmingen, 555725) and IL-2 at 10 ng/ml (Peprotech, 200-02). Blood is then left to incubate at 37° C. for 18 hours. After, plates are spun at 250 g for 5 minutes to pellet blood cells and 25 μl of plasma is transferred to a MesoScale plate coated with an antibody to IFNγ (MesoScale Discovery K151AEC-2) containing 25 μl/well MesoScale Discovery Blocking Solution-2. Plates have been blocked by incubating with 25 μl/well MesoScale Discovery Blocking Solution-2 for 30 minutes at room temperature. After the transfer of sera to the MSD plate, the IFNγ protein is captured on the coated antibody by incubation at room temperature for 2 hour with gentle shaking. After the capture step the plate is washed three times with 150 μl/well of 1×PBS-Tween wash buffer and 25 μl/well detection antibody conjugated with a Sulfo-Tag is added and incubated for 2 hours at room temperature with gentle shaking. Subsequently the antibody solution is removed and the plate is washed 3 times with 150 μl/well 1×PBS-Tween wash buffer and 150 μl/well MesoScale Discovery Read buffer is added. The plates are analysed on a MSD 2400 Plate Reader (MesoScale Discovery). Data analysis is performed using nonlinear regression for a sigmoidal dose-response with a variable slope.

[3] = target: mTOR (Homo sapiens, UniProt P42345); test: biochemical
[4] = target: DNA-dependent protein kinase (DNA-PK) (Homo sapiens, UniProt P78527); test: biochemical
Sequence of DNA-dependent protein kinase (DNA-PK) (P78527 whole entry): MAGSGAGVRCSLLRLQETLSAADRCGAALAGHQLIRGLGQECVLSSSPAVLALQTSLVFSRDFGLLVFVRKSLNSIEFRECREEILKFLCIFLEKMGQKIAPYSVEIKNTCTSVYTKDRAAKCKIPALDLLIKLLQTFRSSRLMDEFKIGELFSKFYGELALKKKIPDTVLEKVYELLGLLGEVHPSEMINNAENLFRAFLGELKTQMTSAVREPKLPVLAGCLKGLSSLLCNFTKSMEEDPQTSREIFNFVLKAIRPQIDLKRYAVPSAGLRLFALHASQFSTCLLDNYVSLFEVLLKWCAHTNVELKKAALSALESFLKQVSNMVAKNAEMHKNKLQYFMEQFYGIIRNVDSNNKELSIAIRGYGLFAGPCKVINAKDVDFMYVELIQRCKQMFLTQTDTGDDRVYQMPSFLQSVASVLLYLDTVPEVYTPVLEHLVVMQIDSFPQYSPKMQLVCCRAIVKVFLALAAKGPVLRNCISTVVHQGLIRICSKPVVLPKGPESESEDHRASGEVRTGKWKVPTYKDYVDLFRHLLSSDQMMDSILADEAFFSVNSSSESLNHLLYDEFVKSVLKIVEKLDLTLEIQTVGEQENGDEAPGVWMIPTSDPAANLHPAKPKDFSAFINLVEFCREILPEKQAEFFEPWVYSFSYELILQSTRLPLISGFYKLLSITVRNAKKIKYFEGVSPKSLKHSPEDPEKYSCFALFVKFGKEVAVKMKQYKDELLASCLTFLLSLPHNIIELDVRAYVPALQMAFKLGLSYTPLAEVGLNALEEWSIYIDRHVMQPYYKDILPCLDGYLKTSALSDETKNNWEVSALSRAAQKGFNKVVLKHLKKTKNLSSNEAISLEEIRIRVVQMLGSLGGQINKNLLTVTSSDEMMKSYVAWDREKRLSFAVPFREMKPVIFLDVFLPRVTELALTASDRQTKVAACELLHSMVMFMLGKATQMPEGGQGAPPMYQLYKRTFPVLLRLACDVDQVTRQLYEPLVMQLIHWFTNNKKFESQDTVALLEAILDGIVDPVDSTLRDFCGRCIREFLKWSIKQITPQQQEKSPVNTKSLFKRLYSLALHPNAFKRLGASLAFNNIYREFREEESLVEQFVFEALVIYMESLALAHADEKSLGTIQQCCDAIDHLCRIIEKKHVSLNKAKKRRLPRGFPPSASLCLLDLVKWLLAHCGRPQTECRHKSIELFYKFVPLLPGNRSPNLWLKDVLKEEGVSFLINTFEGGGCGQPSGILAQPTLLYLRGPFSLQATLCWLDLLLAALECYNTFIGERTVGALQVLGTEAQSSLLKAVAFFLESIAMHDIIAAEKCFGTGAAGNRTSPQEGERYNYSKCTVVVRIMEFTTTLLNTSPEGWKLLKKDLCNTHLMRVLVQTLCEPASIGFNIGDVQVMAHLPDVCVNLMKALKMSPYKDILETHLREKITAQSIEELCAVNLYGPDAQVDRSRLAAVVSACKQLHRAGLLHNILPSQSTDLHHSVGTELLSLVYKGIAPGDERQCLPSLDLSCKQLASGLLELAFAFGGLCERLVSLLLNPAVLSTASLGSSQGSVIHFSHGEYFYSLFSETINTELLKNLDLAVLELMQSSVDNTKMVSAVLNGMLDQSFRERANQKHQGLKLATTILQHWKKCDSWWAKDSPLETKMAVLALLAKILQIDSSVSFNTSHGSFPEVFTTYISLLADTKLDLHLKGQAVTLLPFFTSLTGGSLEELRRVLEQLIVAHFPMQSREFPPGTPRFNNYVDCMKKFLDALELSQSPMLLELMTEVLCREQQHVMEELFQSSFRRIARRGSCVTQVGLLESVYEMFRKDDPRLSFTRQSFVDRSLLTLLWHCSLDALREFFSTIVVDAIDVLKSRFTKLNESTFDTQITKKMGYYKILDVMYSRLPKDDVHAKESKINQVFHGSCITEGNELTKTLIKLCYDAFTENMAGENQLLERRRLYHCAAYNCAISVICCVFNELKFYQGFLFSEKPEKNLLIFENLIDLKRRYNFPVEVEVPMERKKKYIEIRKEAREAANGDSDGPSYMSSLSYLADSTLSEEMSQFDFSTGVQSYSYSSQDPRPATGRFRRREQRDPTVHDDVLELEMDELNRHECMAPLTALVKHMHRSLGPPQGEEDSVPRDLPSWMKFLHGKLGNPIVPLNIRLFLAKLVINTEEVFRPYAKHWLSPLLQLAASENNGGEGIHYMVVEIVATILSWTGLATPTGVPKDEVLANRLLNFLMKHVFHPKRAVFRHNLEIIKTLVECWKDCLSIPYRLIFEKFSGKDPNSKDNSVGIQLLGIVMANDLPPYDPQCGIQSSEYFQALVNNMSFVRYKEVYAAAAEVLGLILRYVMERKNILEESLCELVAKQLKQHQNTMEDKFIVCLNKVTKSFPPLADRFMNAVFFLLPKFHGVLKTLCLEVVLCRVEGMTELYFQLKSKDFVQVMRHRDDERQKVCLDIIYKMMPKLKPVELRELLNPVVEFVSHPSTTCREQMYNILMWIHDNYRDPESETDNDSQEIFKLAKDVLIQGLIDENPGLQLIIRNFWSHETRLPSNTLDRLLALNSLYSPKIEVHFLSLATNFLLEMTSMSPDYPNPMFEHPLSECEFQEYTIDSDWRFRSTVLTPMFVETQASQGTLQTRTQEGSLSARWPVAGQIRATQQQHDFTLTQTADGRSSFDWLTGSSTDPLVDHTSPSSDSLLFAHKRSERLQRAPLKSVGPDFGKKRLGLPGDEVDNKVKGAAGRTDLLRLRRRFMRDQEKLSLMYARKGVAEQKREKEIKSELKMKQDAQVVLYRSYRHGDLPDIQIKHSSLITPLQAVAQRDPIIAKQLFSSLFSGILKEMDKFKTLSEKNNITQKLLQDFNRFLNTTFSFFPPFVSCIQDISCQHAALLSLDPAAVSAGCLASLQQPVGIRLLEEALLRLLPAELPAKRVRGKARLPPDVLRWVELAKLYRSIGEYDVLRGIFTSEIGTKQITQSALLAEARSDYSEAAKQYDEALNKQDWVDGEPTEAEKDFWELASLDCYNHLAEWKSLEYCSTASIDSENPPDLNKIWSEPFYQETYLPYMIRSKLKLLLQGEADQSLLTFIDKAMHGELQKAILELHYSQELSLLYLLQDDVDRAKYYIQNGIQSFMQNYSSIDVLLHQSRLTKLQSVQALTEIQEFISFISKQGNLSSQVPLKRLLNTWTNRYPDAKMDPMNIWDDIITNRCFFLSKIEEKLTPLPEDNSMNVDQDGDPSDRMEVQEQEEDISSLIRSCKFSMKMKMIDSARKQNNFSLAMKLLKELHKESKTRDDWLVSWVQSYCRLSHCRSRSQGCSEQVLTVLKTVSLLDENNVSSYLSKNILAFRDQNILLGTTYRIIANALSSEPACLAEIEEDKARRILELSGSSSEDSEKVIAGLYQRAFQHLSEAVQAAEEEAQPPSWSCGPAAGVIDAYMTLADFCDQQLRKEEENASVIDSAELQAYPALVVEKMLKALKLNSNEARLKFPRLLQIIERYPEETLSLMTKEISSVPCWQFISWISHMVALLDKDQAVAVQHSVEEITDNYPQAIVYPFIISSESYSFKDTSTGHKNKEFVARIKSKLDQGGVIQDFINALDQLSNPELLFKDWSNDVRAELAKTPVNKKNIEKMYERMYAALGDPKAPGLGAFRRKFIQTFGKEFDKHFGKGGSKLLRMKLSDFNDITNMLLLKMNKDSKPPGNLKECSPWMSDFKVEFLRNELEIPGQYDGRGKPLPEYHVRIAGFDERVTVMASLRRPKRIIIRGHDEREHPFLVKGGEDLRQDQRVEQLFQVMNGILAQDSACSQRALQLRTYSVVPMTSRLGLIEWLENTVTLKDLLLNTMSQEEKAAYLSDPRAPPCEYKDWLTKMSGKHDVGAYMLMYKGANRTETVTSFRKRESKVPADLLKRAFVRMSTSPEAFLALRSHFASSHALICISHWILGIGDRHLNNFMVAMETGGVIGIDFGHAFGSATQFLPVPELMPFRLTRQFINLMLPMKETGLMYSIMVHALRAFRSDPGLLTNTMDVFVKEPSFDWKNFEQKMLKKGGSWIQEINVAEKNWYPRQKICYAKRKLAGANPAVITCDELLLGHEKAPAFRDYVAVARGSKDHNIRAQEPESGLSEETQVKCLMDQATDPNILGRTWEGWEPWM

Row | IC50 [1] [nM] | IC50 [2] [nM] | IC50 [3] [nM] | IC50 [4] [nM] | Structure (SMILES)
1 | < 100 | 200 | < 100 | – | CCNC(=O)Nc1ccc(-c2nc3c(c(N4CCOC[C@@H]4C)n2)[C@H](C)S(=O)(=O)C3)cc1 [Example 40, 1-ethyl-3-(4-((S)-5-methyl-4-((S)-3-methylmorpholino)-6,6-dioxido-5,7-dihydrothieno[3,4-d]pyrimidin-2-yl)phenyl)urea]
2 | < 100 | 126 | < 100 | – | CC1c2c(N3CCOC[C@@H]3C)nc(-c3ccc(NC(=O)NCCF)cc3)nc2C(C)(C)S1(=O)=O (stereo partly drawn) [Example 75, 1-(2-fluoroethyl)-3-(4-(5,7,7-trimethyl-4-((S)-3-methylmorpholino)-6,6-dioxido-5,7-dihydrothieno[3,4-d]pyrimidin-2-yl)phenyl)urea]
3 | 1000 to 10000 | – | < 100 | > 10000 | O=C(NCCO)Nc1ccc(-c2nc3c(c(N4CC5CCC(C4)O5)n2)CS(=O)(=O)C3)cc1 [Example 16, 1-(4-(4-(8-oxa-3-azabicyclo[3.2.1]octan-3-yl)-6,6-dioxido-5,7-dihydrothieno[3,4-d]pyrimidin-2-yl)phenyl)-3-(2-hydroxyethyl)urea]
4 | 100 to 1000 | – | < 100 | > 10000 | O=C(Nc1ccc(-c2nc3c(c(N4CCOCC4)n2)CS(=O)(=O)C3)cc1)NC1CC1 [Example 18, 1-cyclopropyl-3-(4-(4-morpholino-6,6-dioxido-5,7-dihydrothieno[3,4-d]pyrimidin-2-yl)phenyl)urea]
5 | < 100 | 501 | < 100 | – | CNC(=O)Nc1ccc(-c2nc(N3CCOC[C@@H]3C)c3c(n2)C(C)(C)S(=O)(=O)C3C)c(F)c1 (stereo partly drawn) [Example 78, 1-(3-fluoro-4-(5,7,7-trimethyl-4-((S)-3-methylmorpholino)-6,6-dioxido-5,7-dihydrothieno[3,4-d]pyrimidin-2-yl)phenyl)-3-methylurea]
6 | < 100 | – | 100 to 1000 | > 10000 | CC1c2c(nc(-c3ccc(NC(=O)NC4CC4)cc3)nc2N2CCOCC2)CS1(=O)=O (stereo not drawn) [Example 31, 1-cyclopropyl-3-(4-(5-methyl-4-morpholino-6,6-dioxido-5,7-dihydrothieno[3,4-d]pyrimidin-2-yl)phenyl)urea]
7 | < 100 | – | 100 to 1000 | > 10000 | CNC(=O)Nc1ccc(-c2nc(N3CCOC[C@@H]3C)c3c(n2)C(C)(C)S(=O)(=O)C3)cc1F [Example 65, (S)-1-(4-(7,7-dimethyl-4-(3-methylmorpholino)-6,6-dioxido-5,7-dihydrothieno[3,4-d]pyrimidin-2-yl)-2-fluorophenyl)-3-methylurea]

The next lines start with the molecule.

Row | Structure (SMILES) | IC50 [1] [nM] | IC50 [2] [nM] | IC50 [3] [nM] | IC50 [4] [nM]
8 | CCCNC(=O)Nc1ccc(-c2nc3c(c(N4CCOC[C@@H]4C)n2)C(C)S(=O)(=O)C3)cc1 (stereo partly drawn) [Example 45, 1-(4-(5-methyl-4-((S)-3-methylmorpholino)-6,6-dioxido-5,7-dihydrothieno[3,4-d]pyrimidin-2-yl)phenyl)-3-propylurea] | < 100 | 398 | < 100 | –
9 | CCNC(=O)Nc1ccc(-c2nc(N3CCOC[C@@H]3C)c3c(n2)C(C)(C)S(=O)(=O)C3C)cc1 (stereo partly drawn) [Example 42, 1-ethyl-3-(4-(5,7,7-trimethyl-4-((S)-3-methylmorpholino)-6,6-dioxido-5,7-dihydrothieno[3,4-d]pyrimidin-2-yl)phenyl)urea] | < 100 | 251 | < 100 | –
10 | CCNC(=O)Nc1ccc(-c2nc3c(c(N4CCOC[C@@H]4C)n2)C(C)S(=O)(=O)C3)cc1F (stereo partly drawn) [Example 50, 1-ethyl-3-(2-fluoro-4-(5-methyl-4-((S)-3-methylmorpholino)-6,6-dioxido-5,7-dihydrothieno[3,4-d]pyrimidin-2-yl)phenyl)urea] | < 100 | 1000 | < 100 | –
11 | C[C@H]1COCCN1c1nc(-c2ccc(NC(=O)NC3CC3)cc2)nc2c1CS(=O)(=O)CC2 [Example 4, (S)-1-cyclopropyl-3-(4-(4-(3-methylmorpholino)-6,6-dioxido-7,8-dihydro-5H-thiopyrano[4,3-d]pyrimidin-2-yl)phenyl)urea] | 100 to 1000 | – | < 100 | > 10000
12 | C[C@H]1COCCN1c1nc(-c2ccc(NC(=O)NCCCF)cc2)nc2c1CS(=O)(=O)C2 [Example 28, (S)-1-(3-fluoropropyl)-3-(4-(4-(3-methylmorpholino)-6,6-dioxido-5,7-dihydrothieno[3,4-d]pyrimidin-2-yl)phenyl)urea] | 100 to 1000 | – | 100 to 1000 | > 10000
13 | C[C@H]1COCCN1c1nc(-c2ccc(NC(=O)NCCO)cc2)nc2c1CS(=O)(=O)C2 [Example 13, (S)-1-(2-hydroxyethyl)-3-(4-(4-(3-methylmorpholino)-6,6-dioxido-5,7-dihydrothieno[3,4-d]pyrimidin-2-yl)phenyl)urea] | 1000 to 10000 | – | < 100 | 1000 to 10000
14 | O=C(NCCCF)Nc1ccc(-c2nc3c(c(N4CC5CCC(C4)O5)n2)CS(=O)(=O)C3)cc1 [Example 29, 1-(4-(4-(8-oxa-3-azabicyclo[3.2.1]octan-3-yl)-6,6-dioxido-5,7-dihydrothieno[3,4-d]pyrimidin-2-yl)phenyl)-3-(3-fluoropropyl)urea] | 100 to 1000 | – | 100 to 1000 | > 10000
15 | O=C(NCCF)Nc1ccc(-c2nc3c(c(N4CC5CCC(C4)O5)n2)CS(=O)(=O)C3)cc1 [Example 22, 1-(4-(4-(8-oxa-3-azabicyclo[3.2.1]octan-3-yl)-6,6-dioxido-5,7-dihydrothieno[3,4-d]pyrimidin-2-yl)phenyl)-3-(2-fluoroethyl)urea] | 100 to 1000 | – | < 100 | > 10000
16 | C[C@H]1COCCN1c1nc(-c2ccc(NC(=O)NCCF)cc2)nc2c1CS(=O)(=O)C2 [Example 14, (S)-1-(2-fluoroethyl)-3-(4-(4-(3-methylmorpholino)-6,6-dioxido-5,7-dihydrothieno[3,4-d]pyrimidin-2-yl)phenyl)urea] | 100 to 1000 | – | < 100 | > 3000
17 | O=C(Nc1ccc(-c2nc3c(c(N4C5CCC4COC5)n2)CS(=O)(=O)C3)cc1)NC1CC1 [Example 26, 1-(4-(4-(3-oxa-8-azabicyclo[3.2.1]octan-8-yl)-6,6-dioxido-5,7-dihydrothieno[3,4-d]pyrimidin-2-yl)phenyl)-3-cyclopropylurea] | < 100 | – | < 100 | > 10000
